Measurements published in PMC8159961, “Exploring protein hotspots by optimized fragment pharmacophores” (Nature Communications, 2021).
Several values for one entry are separate records, joined by “and”; a condition that tells them apart may be missing. Equal entries are not always repeated. Where two headings read alike, the source gives them in different places.

Legend:
bovine factor Xa = target: T1, bovine factor Xa (Bos taurus, UniProt P00743); test: Protease inhibitory assay, chromogenic substrate S-2222; assay type: biochemical; settings: cmpd conc 200 µM; for vinit: replicate values; for Ki: FactorXa, one of two values averaged in Supplementary Data 1, read-out: Ki
T1 construct: bovine factor Xa, Chromogenix, 2 nkat/mL; purchased Chromogenix

human thrombin = target: T2, human thrombin (Homo sapiens, UniProt P00734); test: Protease inhibitory assay, chromogenic substrate S-2238; assay type: biochemical; settings: for vinit: replicate values; for Ki: Thrombin, one of two values averaged in Supplementary Data 1, read-out: Ki
T2 construct: human thrombin; purchased Sigma-Aldrich

[1] = FactorXa primary screening, substrate 100 µM
[2] = Thrombin primary screening, substrate 40 µM, cmpd conc 500 µM
[3] = FactorXa Ki determination, substrate 100 µM
[4] = FactorXa Ki determination, substrate 200 µM
[5] = Thrombin Ki determination, substrate 20 µM, cmpd conc 200 µM
[6] = Thrombin Ki determination, substrate 40 µM, cmpd conc 200 µM
[7] = substrate 20 µM, cmpd conc 200 µM
[8] = substrate 40 µM, cmpd conc 200 µM

T1 sequence (P00743 234-492 limits assumed): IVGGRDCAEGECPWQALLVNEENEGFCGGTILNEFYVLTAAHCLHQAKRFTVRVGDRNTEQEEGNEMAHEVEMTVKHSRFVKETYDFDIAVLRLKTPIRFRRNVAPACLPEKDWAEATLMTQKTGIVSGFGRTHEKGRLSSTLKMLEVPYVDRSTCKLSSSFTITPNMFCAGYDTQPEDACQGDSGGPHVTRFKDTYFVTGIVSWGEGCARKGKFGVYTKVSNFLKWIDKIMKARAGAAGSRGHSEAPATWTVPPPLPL
T1 sequence (P00743 41-180 partner limits assumed): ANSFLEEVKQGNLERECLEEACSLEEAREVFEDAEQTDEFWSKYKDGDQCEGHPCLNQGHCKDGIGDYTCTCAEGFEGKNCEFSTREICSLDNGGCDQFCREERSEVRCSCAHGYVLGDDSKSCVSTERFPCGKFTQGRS

SMILES | V0 / Vi (bovine factor Xa; [1]) | vinit (bovine factor Xa; [1]) | V0 / Vi (human thrombin; [2]) | vinit (human thrombin; [2]) | other results
O=C1CCCc2occc21 [SX-B3] | 1.01 | 17.709 and 16.909 | 0.97 | 30.582 and 29.818 | 
NCC1(c2ccccc2)CCOCC1 [SX-F10] | 0.94 | 14.6 and 16.3 | 0.89 | 36.218 and 34.182 | 
Cc1cnc(C(F)(F)F)cn1 [SX-B9] | 0.98 | 18.8 and 17.6 | 1.01 | 31.164 and 30.509 | 
O=C1CCC(=O)N(c2ccccc2)N1 [SX-H7] | 0.97 | 16.4 | 1.06 | 30 and 29.357 | 
c1ccc2c(N3CCNCC3)ccnc2c1 [SX-C4] | 1.03 | 16.357 and 17 | 1.01 | 30.291 and 29.018 | 
O=C1NC(=O)/C(=C\c2cccs2)N1 [SX-H12] | 1.27 | 12.7 and 12.5 | 1.13 | 29.929 and 26.071 | vinit, avrg. (bovine factor Xa; [3]): 13.665; vinit (bovine factor Xa; [3]): 13.174 and 12.668 and 15.15; V0 / Vi (bovine factor Xa; [4]): 1.24; vinit, avrg. (bovine factor Xa; [4]): 27.296; vinit (bovine factor Xa; [4]): 25.633 and 28.073 and 28.18; Ki (bovine factor Xa; substrate 100 µM): 552 µM; Ki (bovine factor Xa; substrate 200 µM): 380 µM
CC1(C)OC(=O)c2cc(Br)c(O)cc2O1 [SX-C6] | 1.03 | 16.857 and 16.429 | 1.14 | 27.418 and 25.091 | 
O=C(O)C1CCCN(C(=O)N2CCCC2)C1 (centres unmarked) [SX-G6] | 1.09 | 16.1 and 15 | 1.18 | 27.345 and 28.364 | 
O=c1[nH]ncc2c1oc1ccccc12 [SX-B6] | 1.00 | 17.214 and 17.071 | 1.05 | 28.582 and 28.145 | 
Cc1cc(-c2ccccc2)n[nH]1 [SX-A8] | 0.98 | 19.236 and 17.164 | 0.97 | 32.036 and 32.145 | 
O=C(O)c1cnc(-c2ccccc2)s1 [SX-F3] | 1.02 | 17.382 and 16.873 | 1.06 | 26.545 and 28.873 | V0 / Vi (human thrombin; [5]): 1.08; vinit, avrg. (human thrombin; [5]): 24.620; vinit (human thrombin; [5]): 23.206 and 25.134 and 25.52; V0 / Vi (human thrombin; [6]): 1.05; vinit, avrg. (human thrombin; [6]): 32.167; vinit (human thrombin; [6]): 32.686 and 32.577 and 31.24; Ki (human thrombin; [7]): 297 µM; Ki (human thrombin; [8]): 245 µM
N#Cc1ccc2ncsc2c1 [SX-C12] | 1.17 | 10.6 and 14 | 0.98 | 31.855 and 32.109 | 
CS(=O)(=O)Nc1ccc(C(=O)O)cc1 [SX-G12] | 1.01 | 17.2 and 16.5 | 1.06 | 31.418 and 30.764 | 
N#CCCN1CCc2ccccc21 [SX-F4] | 1.01 | 16.857 and 17.357 | 1.01 | 31.2 and 28.109 | 
c1ccc2[nH]ccc2c1 [SX-A4] | 1.05 | 15.929 and 16.714 | 0.97 | 31.418 and 30.036 | 
CCCN1C(=O)CC(=O)NC1=S [SX-D5] | 1.06 | 16.429 and 16.071 | 1.13 | 26.909 and 25.673 | 
CC1CCc2sc(C(=O)O)cc2C1 (centres unmarked) [SX-D9] | 1.04 | 17.818 and 16.655 | 1.40 | 23.527 and 20.764 | V0 / Vi (human thrombin; [5]): 1.41; vinit, avrg. (human thrombin; [5]): 18.876; vinit (human thrombin; [5]): 19.443 and 19.03 and 18.15; V0 / Vi (human thrombin; [6]): 1.17; vinit, avrg. (human thrombin; [6]): 28.950; vinit (human thrombin; [6]): 33.096 and 26.331 and 27.42; Ki (human thrombin; [7]): 57 µM; Ki (human thrombin; [8]): 73 µM
O=C1NC2(CCCC2)Nc2ccccc21 [SX-C9] | 0.98 | 18.873 and 17.6 | 1.01 | 30.218 and 31.018 | 
Cc1ccc(CCNc2ccccc2)cn1 [SX-H11] | 0.99 | 15.4 and 17 | 1.00 | 31.714 and 31.42 | 
FC1(F)CNCC(F)(F)O1 [SX-H3] | 0.94 | 18.2 and 17.8 | 0.99 | 34.218 and 32.291 | 
Cc1nc(-c2ccccc2)cs1 [SX-A7] | 0.98 | 17.782 and 18.8 | 0.97 | 32.618 and 31.345 | 
